# Data reported in patent publication US20050148534A1, “Small molecule compositions and methods for increasing drug efficiency using compositions thereof” (priority 2003, published 2005).
# Read-outs that look alike come from different tables or passages of the source.
# Assays:
# [1] = tested on: tubulin; test: Fluorescence-based microtubule polymerization assay (MPA); type: biochemical; conditions: mean percentage of paclitaxel or vinblastine activity; 0.75-10 micromolar
# In short: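 Tubulin polymerization was followed by fluorescence (ex 360/em 405 nm) in a commercial kit with 1 mg/ml BSA added to every assay, glycerol being omitted for paclitaxel conjugates. Parent drugs and conjugates were tested at 0.75, 1.5, 3 and 10 micromolar final. Curves from the linear range of the dose responses were compared.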
# [2] = tested on: HUVEC; test: Cytotoxicity assay (monolayer), HUVEC; type: cell-based; conditions: Homo sapiens, read-out: HUVEC (EC50 Ave) ML
# [3] = tested on: Normal human foreskin fibroblasts (HFF); test: Cytotoxicity assay (monolayer), HFF; type: cell-based; conditions: Fibroblast
# Experimental: Statistical Assoc., 81, 991-999, 1986.
# Monolayer assays with tumor cell lines (MCF-7 breast carcinoma and HT-29 colorectal carcinoma from ATCC) were carried out in triplicate in 96-well plates with RPMI1640 medium containing 5% fetal bovine serum, 100 U/ml penicillin and 100 μg/ml streptomycin. Normal human foreskin fibroblasts (HFF #CC-2509) were from Cambrex and were cultured in FGM-2 medium. Exponentially growing cells (5,000 MCF-7 or HT-29; 1,500 HFF) were plated in 100 μl medium and incubated overnight (5% CO2, 37° C.). Compounds (20 pM to 20 μM final concentration, 6-8 doses) and vehicle (DMSO) controls were added and the incubation was continued for an additional 72 hours. Final cell density was determined by incubating cultures with 25 μl AlamarBlue reagent (BioSource, Camarillo, Calif.) for 4 hours, followed by determination of fluorescence at excitation of 544 nm and emission of 590 nm with a SpectroMax Gemini EM fluorescence plate reader (Molecular Devices, Sunnyvale, Calif.). EC50 values were generated from dose-response curves by a 4-parameter method using Softmax PRO software. Mean EC50s (±SD) represent the average of all tests carried out for all lots of a given compound. […] Statistical Assoc., 81, 991-999 (1986).
# [4] = tested on: breast carcinoma, colon carcinoma and leukemia; test: Cytotoxicity of drug-thymidine conjugates (Example 22); type: cell-based
# [5] = Cytotoxicity assay (soft agar), HT-29; conditions: human
# [6] = tested on: HT-29 colorectal carcinoma; test: Cytotoxicity assay (soft agar), HT-29; conditions: Homo sapiens
compound,measurement,setting,value
CC(=O)O[C@H]1C(=O)[C@@]2(C)[C@H]([C@H](OC(=O)c3ccccc3)[C@]3(O)C[C@H](OC(=O)[C@H](O)[C@@H](NC(=O)c4ccccc4)c4ccccc4)C(C)=C1C3(C)C)[C@]1(OC(C)=O)CO[C@@H]1C[C@@H]2O [Paclitaxel],Ave. MPA Act,[1],C (C>100)
same,EC50,[2],< 100 nM
same,EC50,"[3]; mean ± SD, read-out: HFF Monolayer EC50",9 ± 5 nM
same,EC50,"[3]; monolayer, 72 hours, AlamarBlue, read-out: HFF (EC50 Ave) ML",< 100 nM
same,EC50,[4],5 to 8 nM
same,selectivity ratio,[5],0.6
same,EC50,"[6]; HT-29, read-out: HT29 (EC50 Ave) SA",< 100 nM
same,EC50,"[6]; HT-29, read-out: HT-29 Soft Agar EC50",15 ± 2 nM
